The text below walks through data of patent US8436012B2, “Imidazopyridin-2-one derivatives” (Daiichi Sankyo Company, Limited, priority 2008, dated 2013).

One experiment deals with WM-266-4 cells. The experiment can be described thus: Cell Proliferation Inhibitory Test. The experiment is classed as cell-based. The settings on record: Homo sapiens, 72 h, cultured three days with test compound, MTT, read-out: 50% cell proliferation inhibitory activity (GI50 value). On the procedure: WM-266-4 cells (ATCC, USA) were seeded in a 96-well plate and cultured overnight. Then, serial dilutions of the sample containing the test compound were prepared, added to each well and cultured another three days. Thereafter, the cell amount in each well was measured by MTT (MOSMANN, T., Rapid colorimetric assay for cellular growth and survival: application to proliferation and cytotoxicity assays. J. Immunol. Methods, 65, 55-63 (1983)). The 50% cell proliferation inhibitory activity (GI50 value) was calculated from the following formula (3). 100×[(T−T0)/(C−T0)]=50 (3)
Here, T represents values from the test compound added wells, C represents the value from the well to which the test compound was not added for three days, and To represents an initial measured value at the time of addition of the test compound.

Another experiment concerns the target T1, human mTOR (Homo sapiens, UniProt P42345).
T1 construct: the portion corresponding to 1362-2549aa at the C terminus of human mTOR; made in house
The experiment can be described thus: mTOR Kinase Activity Inhibition Test. The experiment is classed as biochemical. To be noted: His-tagged mTOR (1362C), biotinylated peptide substrate, ATP, 3 hours at room temperature, fluorescence resonance energy transfer 665 nm/620 nm; read-out: IC50 value of mTOR enzyme inhibitory activity. On the procedure: The kinase activity of mTOR was measured in the presence or absence of a test compound. A substrate peptide is phosphorylated by mTOR kinase activity. A complex of streptavidin-XL665 and anti-phosphorylated S6K (Thr389) antibody/anti-mouse IgG-cryptate binds to this phosphorylated peptide. At this moment, fluorescence resonance energy transfer takes place from antibody/anti-mouse IgG-cryptate exposed to light excitation to XL665, which results in emission of fluorescence at 665 nm. The mTOR kinase activity is detected using this principle.
(1) Sample Preparation and Enzymatic Reaction
An HEK293 cell line that constitutively expresses a His tag fused human mTOR has been established. His tag was introduced into the N terminus of the portion corresponding to 1362-2549aa at the C terminus of human mTOR. Cell lysate was prepared from this HEK293 cell line constitutively expressing His-tagged mTOR (1362C), and His-tagged mTOR (1362C) was purified using the His tag affinity according to a conventional method.
Next, an mTOR enzyme solution was prepared, which contains the aforementioned His-tagged mTOR (1362C) enzyme, 8 μg/mL of biotinylated peptide (Biotin-Ahx-[…]-amide (Sigma)), as well as 50 mM HEPES (pH 7.5), 20 mM MnCl2, 1 mg/ml BSA, an appropriate amount of protease inhibitor cocktail (Complete EDTA free, Roche), 100 ng/ml Calyculin A, 4 μg/ml Cantharidin and 10 mM DTT as other components.
The test compound was dissolved in DMSO, and serial dilutions were prepared with 20 μM ATP solution (50 mM HEPES (pH 7.5), 20 μM ATP) to achieve concentrations necessary for the assay. 5 μL of this compound solution was applied to each well of a 384 well small volume white Greiner plate.
5 μL of mTOR enzyme solution was added to the aforementioned well containing the test compound. After mixing, the mixture was incubated at room temperature for 3 hours to carry out the enzymatic reaction.
The same operation was performed with a solution of DMSO in 20 μM ATP solution as a positive control and with a solution of DMSO in 50 mM HEPES (pH 7.5) as a negative control.
(2) Detection of Enzymatic Reaction
After the enzymatic reaction, 5 μl each of an europium solution (a solution of anti-mouse IgG-cryptate (SCETI Medical Labo K.K.) and anti-phosphorylated S6K (Thr389) antibody (Cell Signaling Technology Inc.) in 50 mM HEPES (pH 7.5), 100 mM EDTA and 1.5 mg/ml BSA) and an XL665 solution (a solution of streptavidin-XL665 (SCETI Medical Labo K.K.) in 50 mM HEPES (pH 7.5), 100 mM EDTA, 0.8 M KF and 1.5 mg/ml BSA) were added in this order and then mixed. The mixture was incubated at 4° C. overnight. On the following day, the mixture was returned to room temperature and irradiated with excitation light at 337 nm. Fluorescence at 620 nm and fluorescence at 665 nm were measured with RUBYstar (BMG).
The mTOR inhibitory activity (%) was calculated using the ratio calculated from the measured values as an index of enzyme activity. Here, the ratio was calculated from the following formula (I). Ratio=10000×665 nm fluorescence value/620 nm fluorescence value (1)
The mTOR enzyme inhibitory activity (%) was calculated from the following formula (2). mTOR enzyme inhibitory activity (%)=100×[(P−S)/(P−N)] (2)
P: Ratio in well of positive control
N: Ratio in well of negative control
S: Ratio in well containing test compound
Further, an optimal curve was calculated based upon each concentration of the test compound prepared in serial dilutions and the mTOR enzyme inhibitory activity (%) at that concentration. The concentration at which 50% inhibition occurred was calculated as the IC50 value of mTOR enzyme inhibitory activity.

T1 sequence (P42345 1362-2549): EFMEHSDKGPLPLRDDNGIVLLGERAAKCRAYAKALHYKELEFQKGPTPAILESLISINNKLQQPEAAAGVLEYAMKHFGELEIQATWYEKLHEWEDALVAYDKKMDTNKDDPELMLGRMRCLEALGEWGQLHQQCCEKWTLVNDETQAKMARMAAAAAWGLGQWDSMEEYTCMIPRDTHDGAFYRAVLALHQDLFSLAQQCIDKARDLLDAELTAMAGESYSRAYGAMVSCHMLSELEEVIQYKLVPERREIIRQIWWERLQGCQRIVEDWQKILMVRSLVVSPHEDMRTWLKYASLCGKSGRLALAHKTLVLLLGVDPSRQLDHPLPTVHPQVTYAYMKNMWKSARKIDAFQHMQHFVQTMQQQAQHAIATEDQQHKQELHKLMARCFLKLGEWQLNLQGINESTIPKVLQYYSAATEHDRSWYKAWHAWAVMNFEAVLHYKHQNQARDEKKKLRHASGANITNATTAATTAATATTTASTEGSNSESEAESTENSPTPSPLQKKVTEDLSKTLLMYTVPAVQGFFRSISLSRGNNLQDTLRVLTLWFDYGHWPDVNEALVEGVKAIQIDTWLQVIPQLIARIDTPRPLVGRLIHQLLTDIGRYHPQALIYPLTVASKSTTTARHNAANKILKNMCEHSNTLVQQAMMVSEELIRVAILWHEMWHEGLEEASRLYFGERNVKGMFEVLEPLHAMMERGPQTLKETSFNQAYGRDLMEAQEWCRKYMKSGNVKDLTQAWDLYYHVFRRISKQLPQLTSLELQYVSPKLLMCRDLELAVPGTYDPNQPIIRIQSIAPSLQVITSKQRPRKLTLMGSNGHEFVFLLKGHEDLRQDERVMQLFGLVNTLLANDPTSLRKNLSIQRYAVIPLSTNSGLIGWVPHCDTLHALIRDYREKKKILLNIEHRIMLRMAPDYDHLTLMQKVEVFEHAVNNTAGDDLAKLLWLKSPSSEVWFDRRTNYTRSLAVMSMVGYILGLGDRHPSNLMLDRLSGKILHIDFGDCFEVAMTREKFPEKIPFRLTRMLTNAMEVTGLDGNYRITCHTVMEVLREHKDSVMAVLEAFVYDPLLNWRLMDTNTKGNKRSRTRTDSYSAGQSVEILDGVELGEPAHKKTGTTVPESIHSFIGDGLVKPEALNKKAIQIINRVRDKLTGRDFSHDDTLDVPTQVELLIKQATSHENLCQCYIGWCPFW

On to `Cc1nc2[nH]c(=O)n(CC3CCOCC3)c2cc1-c1ccc2[nH]ccc2c1` [Example 7, 6-(1H-Indol-5-yl)-5-methyl-1-(tetrahydro-2H-pyran-4-ylmethyl)-1,3-dihydro-2H-imidazo[4,5-b]pyridin-2-one], for which the GI50 in the experiment with WM-266-4 cells was less than 3000 nM. Moreover, at human mTOR, the IC50 is less than 50 nM. For `O=c1[nH]c2ncc(-c3cc4cc[nH]c4cn3)cc2n1CC1CCOCC1` [Example 83, 6-(1H-Pyrrolo[2,3-c]pyridin-5-yl)-1-(tetrahydro-2H-pyran-4-ylmethyl)-1,3-dihydro-2H-imidazo[4,5-b]pyridin-2-one] the same measures were less than 3000 nM and less than 50 nM. For `CC(C)c1c[nH]c2ncc(-c3cnc4[nH]c(=O)n(CC5CCOCC5)c4c3)cc12` [Example 90, 6-{3-Isopropyl-1H-pyrrolo[2,3-b]pyridin-5-yl}-1-(tetrahydro-2H-pyran-4-ylmethyl)-1,3-dihydro-2H-imidazo[4,5-b]pyridin-2-one] the same measures were less than 3000 nM and less than 50 nM. The like results for `O=c1[nH]c2ncc(-c3cnc4[nH]ccc4c3)cc2n1CC1(F)CCOCC1` [Example 69, 1-[(4-Fluorotetrahydro-2H-pyran-4-yl)methyl]-6-(1H-pyrrolo[2,3-b]pyridin-5-yl)-1,3-dihydro-2H-imidazo[4,5-b]pyridin-2-one] were, in that order, less than 3000 nM and less than 50 nM. Take `Cc1nc2[nH]c(=O)n(C[C@H]3CC[C@@H](O)CO3)c2cc1-c1cnc2[nH]ccc2c1` [Example 149, 2,6-Anhydro-1,3,4-trideoxy-1-[5-methyl-2-oxo-6-(1H-pyrrolo[2,3-b]pyridin-5-yl)-2,3-dihydro-1H-imidazo[4,5-b]pyridin-1-yl]-L-threo-hexitol]: the GI50 with WM-266-4 cells was less than 3000 nM. Further, the IC50 at human mTOR is less than 50 nM. The like results for `Cc1nc2[nH]c(=O)n(C[C@H]3COCCO3)c2cc1-c1cnc2[nH]cc(C)c2c1` [Example 47, 1-[(2S)-1,4-Dioxan-2-ylmethyl]-5-methyl-6-(3-methyl-1H-pyrrolo[2,3-b]pyridin-5-yl)-1,3-dihydro-imidazo[4,5-b]pyridin-2-one] were, in that order, less than 3000 nM and less than 50 nM.

In the case of `Cc1c(-c2cnc3[nH]c(=O)n(C[C@H]4CC[C@@H](O)CO4)c3c2)cnc2[nH]cc(Cl)c12` [Example 145, 2,6-Anhydro-1-[6-(3-chloro-4-methyl-1H-pyrrolo[2,3-b]pyridin-5-yl)-2-oxo-2,3-dihydro-1H-imidazo[4,5-b]pyridin-1-yl]-1,3,4-trideoxy-L-threo-hexitol], the GI50 with WM-266-4 cells was less than 3000 nM. Further, the IC50 at human mTOR was less than 50 nM. The like results for `O=c1[nH]c2ncc(-c3ccc4[nH]ccc4c3)cc2n1C1CCOCC1` [Example 2, 6-(1H-Indol-5-yl)-1-(tetrahydro-2H-pyran-4-yl)-1,3-dihydro-2H-imidazo[4,5-b]pyridin-2-one] were, in that order, less than 3000 nM and 100 to 5000 nM. The like results for `CN1CCC(Cn2c(=O)[nH]c3ncc(-c4cnc5[nH]ccc5c4)cc32)CC1` [Example 56, 1-[(1-Methylpiperidin-4-yl)methyl]-6-(1H-pyrrolo[2,3-b]pyridin-5-yl)-1,3-dihydro-2H-imidazo[4,5-b]pyridin-2-one] were, in that order, 3000 to 25000 nM and 100 to 5000 nM. For `CO[C@H]1CCO[C@@H](Cn2c(=O)[nH]c3ncc(-c4cnc5[nH]ccc5c4)cc32)C1` [Example 137, 2,6-Anhydro-1,3,5-trideoxy-4-O-methyl-1-[2-oxo-6-(1H-pyrrolo[2,3-b]pyridin-5-yl)-2,3-dihydro-1H-imidazo[4,5-b]pyridin-1-yl]-L-threo-hexitol] the same measures were less than 3000 nM and less than 50 nM.

Consider `O=c1[nH]c2ncc(-c3cnc4[nH]ncc4c3)cc2n1CC1CCOCC1` [Example 74, 6-(1H-Pyrazolo[3,4-b]pyridin-5-yl)-1-(tetrahydro-2H-pyran-4-ylmethyl)-1,3-dihydro-2H-imidazo[4,5-b]pyridin-2-one], for which the GI50 in the experiment with WM-266-4 cells was in the range of 3000 to 25000 nM. Also, the IC50 at human mTOR was in the range of 100 to 5000 nM. For `O=c1[nH]c2ncc(-c3cnc4[nH]ccc4c3)cc2n1C[C@H]1COCCO1` [Example 40, 1-[(2S)-1,4-Dioxan-2-ylmethyl]-6-(1H-pyrrolo[2,3-b]pyridin-5-yl)-1,3-dihydro-2H-imidazo[4,5-b]pyridin-2-one] the same measures were less than 3000 nM and less than 50 nM. `O=C(O)c1cc2cc(-c3cnc4[nH]c(=O)n(CC5CCOCC5)c4c3)ccc2[nH]1` [Example 80, 5-[2-Oxo-1-(tetrahydro-2H-pyran-4-ylmethyl)-2,3-dihydro-1H-imidazo[4,5-b]pyridin-6-yl]-1H-indole-2-carboxylic acid]: the IC50 on human mTOR fell in the range of 100 to 5000 nM. Same read-out and setting: the figure for `O=C1Cc2cc(-c3cnc4[nH]c(=O)n(CC5CCOCC5)c4c3)cnc2N1` [Example 30, 6-(2-Oxo-2,3-dihydro-1H-pyrrolo[2,3-b]pyridin-5-yl)-1-(tetrahydro-2H-pyran-4-ylmethyl)-1,3-dihydro-2H-imidazo[4,5-b]pyridin-2-one] is 100 to 5000 nM; for `O=c1[nH]c2ncc(-c3cccc4ncccc34)cc2n1CC1CCOCC1` [Example 13, 6-Quinolin-5-yl-1-(tetrahydro-2H-pyran-4-ylmethyl)-1,3-dihydro-2H-imidazo[4,5-b]pyridin-2-one] it is 100 to 5000 nM; for `O=c1[nH]c2ncc(-c3cnc4[nH]ccc4c3)cc2n1C[C@H]1COC[C@H](O)C1` (racemic) [Example 66, 1-{[trans-5-Hydroxytetrahydro-2H-pyran-3-yl]methyl}-6-(1H-pyrrolo[2,3-b]pyridin-5-yl)-1,3-dihydro-2H-imidazo[4,5-b]pyridin-2-one] it is less than 50 nM. The same measure, in the same setting: next, `O=c1[nH]c2ncc(-c3ccnc4ccccc34)cc2n1CC1CCOCC1` [Example 12, 6-Quinolin-4-yl-1-(tetrahydro-2H-pyran-4-ylmethyl)-1,3-dihydro-2H-imidazo[4,5-b]pyridin-2-one]: 100 to 5000 nM. The same measure, in the same setting: next, `O=C1CCOCC1Cn1c(=O)[nH]c2ncc(-c3cnc4[nH]ccc4c3)cc21` (centres unmarked) [Example 106, 1-[(4-Oxotetrahydro-2H-pyran-3-yl)methyl]-6-(1H-pyrrolo[2,3-b]pyridin-5-yl)-1,3-dihydro-2H-imidazo[4,5-b]pyridin-2-one]: less than 50 nM; `O=c1[nH]c2ncc(-c3cncc4ccccc34)cc2n1CC1CCOCC1` [Example 11, 6-Isoquinolin-4-yl-1-(tetrahydro-2H-pyran-4-ylmethyl)-1,3-dihydro-2H-imidazo[4,5-b]pyridin-2-one]: 100 to 5000 nM. As to `O=c1[nH]c2ncc(-c3cnc4[nH]cnc4c3)cc2n1CC1CCOCC1` [Example 22, 1-(Tetrahydro-2H-pyran-4-ylmethyl)-1,3-dihydro-2H,3′H-6,6′-biimidazo[4,5-b]pyridin-2-one], the IC50 at human mTOR was less than 50 nM.

For orientation: IC50 means the concentration at which inhibition is half-maximal.
